This is an account of results in PubChem BioAssay (NCI).

Among the test systems are OVCAR-8 ovarian; OVCAR-4 ovarian; HCC-2998 colon; BT-549 breast; MALME-3M melanoma; MDA-MB-231 breast; NCI-H23 lung; UACC-62 melanoma; SN12C renal; NCI-H226 lung.
Experiment in all cases: NCI-60 cell line screen, 48 h

Molecules are shown by their SMILES.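 Cells were grown in 96-well plates and exposed to each compound for 48 hours at five concentrations; endpoints were interpolated linearly between bracketing concentrations, or set to the highest concentration if not reached. The concentration for 50% growth inhibition is given as GI50. TGI: concentration producing complete growth inhibition.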

With `CS(=O)(=O)N1CCN(Cc2cc3nc(-c4cccc5[nH]ncc45)nc(N4CCOCC4)c3s2)CC1` (tested in a mixture with another compound), the GI50 in the assay on OVCAR-8 ovarian is 0.154 µM; in the assay on OVCAR-4 ovarian, 0.514 µM; in the assay with HCC-2998 colon, 1.31 µM; in the assay with BT-549 breast, 0.0316 µM; in the assay on MALME-3M melanoma, 0.139 µM; with MDA-MB-231 breast, 1.49 µM. The GI50 with NCI-H23 lung was 0.26 µM; with UACC-62 melanoma it was 0.105 µM; with SN12C renal, 0.0898 µM; in the assay on NCI-H226 lung, 0.374 µM. Also, the TGI is > 100 µM with HCC-2998 colon; 0.102 µM in the assay on BT-549 breast; 1.99 µM with MALME-3M melanoma; > 100 µM in the assay with MDA-MB-231 breast; 0.706 µM in the assay with UACC-62 melanoma.

In the case of `COc1ncc(-c2nc3c(n2C(C)C)[C@H](c2ccc(Cl)cc2)N(c2cc(Cl)cn(C)c2=O)C3=O)c(OC)n1`, the GI50 in the assay with OVCAR-8 ovarian is 59.7 µM; in the assay with OVCAR-4 ovarian it was 29.2 µM; in the assay on HCC-2998 colon, 60.1 µM; in the assay with BT-549 breast, 36.7 µM; in the assay on MALME-3M melanoma, 14.6 µM; in the assay with MDA-MB-231 breast, 29.6 µM. Besides, the GI50 in the assay on NCI-H23 lung is > 100 µM; in the assay with UACC-62 melanoma it was 5.95 µM; in the assay on SN12C renal, 49.8 µM; in the assay on NCI-H226 lung it was 15.1 µM. Also, the TGI in the assay on OVCAR-8 ovarian is > 100 µM; in the assay on OVCAR-4 ovarian, > 100 µM; in the assay with HCC-2998 colon, > 100 µM; in the assay on BT-549 breast, > 100 µM; in the assay with MALME-3M melanoma it was 59.3 µM; in the assay on MDA-MB-231 breast, > 100 µM. Moreover, the TGI is > 100 µM with NCI-H23 lung, 28.4 µM in the assay with UACC-62 melanoma, > 100 µM in the assay on SN12C renal and 80.4 µM in the assay with NCI-H226 lung.

On to `COc1cc2cc(Oc3ccc(NC(=O)Nc4ccccc4)cc3)c(C)nc2cc1OCCN1CCCCC1`, for which the GI50 with OVCAR-8 ovarian was 6.26 µM; in the assay with OVCAR-4 ovarian it was 6.96 µM; in the assay with HCC-2998 colon it was 5.62 µM; in the assay with BT-549 breast it was 5.63 µM; in the assay with MALME-3M melanoma, 5.96 µM; with MDA-MB-231 breast, 6.39 µM. For the same molecule, the GI50 was 6.4 µM with NCI-H23 lung, 5.89 µM in the assay with UACC-62 melanoma, 5.15 µM with SN12C renal and 5.82 µM in the assay on NCI-H226 lung. Moreover, the TGI in the assay with OVCAR-8 ovarian came to 15.3 µM; with OVCAR-4 ovarian it was 18.2 µM; in the assay with HCC-2998 colon, 10.5 µM; in the assay with BT-549 breast, 11.2 µM; with MALME-3M melanoma it was 10.9 µM; with MDA-MB-231 breast, 12.1 µM. Also, the TGI in the assay with NCI-H23 lung turned out to be 13.7 µM; in the assay on UACC-62 melanoma, 11 µM; with SN12C renal it was 10.2 µM; in the assay on NCI-H226 lung, 12 µM.

With `O=C(O)CCC1COc2ccccc2O1` (stereo not given), the TGI with OVCAR-8 ovarian, in the assay with OVCAR-4 ovarian, in the assay with HCC-2998 colon, in the assay with BT-549 breast, with MALME-3M melanoma and with MDA-MB-231 breast was > 10 µM each time. The TGI in the assay with NCI-H23 lung, in the assay with UACC-62 melanoma, in the assay with SN12C renal and in the assay with NCI-H226 lung was > 10 µM each time.

`O=C(Nc1cnn2ccc(N3CCC[C@@H]3c3cc(F)ccc3F)nc12)N1CC[C@H](O)C1`: the GI50 in the assay with OVCAR-8 ovarian, with OVCAR-4 ovarian, with HCC-2998 colon, in the assay with BT-549 breast, in the assay with MALME-3M melanoma and in the assay on MDA-MB-231 breast was > 100 µM in each case. The GI50 in the assay on NCI-H23 lung, in the assay on UACC-62 melanoma, in the assay with SN12C renal and with NCI-H226 lung was > 100 µM throughout. Also, the TGI in the assay with OVCAR-8 ovarian, with OVCAR-4 ovarian, in the assay on HCC-2998 colon, with BT-549 breast, with MALME-3M melanoma and in the assay on MDA-MB-231 breast was > 100 µM in each case. Further, the TGI in the assay on NCI-H23 lung, in the assay on UACC-62 melanoma, with SN12C renal and with NCI-H226 lung was > 100 µM in each case.

For the molecule `Nc1nc2c(c3ncccc13)C(c1cccc(Cl)c1)Cc1ncccc1-2` (stereo not given), the GI50 with OVCAR-8 ovarian is 3.95 µM; in the assay on OVCAR-4 ovarian, 5.14 µM; with HCC-2998 colon, 2.77 µM; in the assay on BT-549 breast, 2.28 µM; in the assay with MALME-3M melanoma it was 15.2 µM; with MDA-MB-231 breast, 4.19 µM. The GI50 is 4.93 µM with NCI-H23 lung, 0.628 µM in the assay on UACC-62 melanoma, 5.93 µM in the assay on SN12C renal and 19.6 µM in the assay on NCI-H226 lung. Further, the TGI came out at 37.5 µM in the assay with OVCAR-8 ovarian; 40.5 µM with OVCAR-4 ovarian; 15.1 µM in the assay with HCC-2998 colon; 13.3 µM with BT-549 breast; 60.4 µM in the assay with MALME-3M melanoma; 23.7 µM in the assay with MDA-MB-231 breast. Further, the TGI in the assay with NCI-H23 lung stood at 59.4 µM; in the assay on UACC-62 melanoma, 16.6 µM; in the assay with SN12C renal, 44.5 µM; in the assay with NCI-H226 lung it was 43.2 µM.

For `C(CCc1nnc2c(n1)CCCC2)Cc1nnc2c(n1)CCCC2`, the TGI in the assay with OVCAR-8 ovarian, in the assay on OVCAR-4 ovarian, in the assay with HCC-2998 colon, with BT-549 breast, in the assay on MALME-3M melanoma and in the assay with MDA-MB-231 breast was > 100 µM in each case. Besides, the TGI in the assay with NCI-H23 lung, in the assay on UACC-62 melanoma, in the assay on SN12C renal and with NCI-H226 lung was > 100 µM in each case.

As to `CC[N+](CC)=c1ccc2nc3c(cc(NCc4ccccc4)c4ccccc43)oc-2c1`, the GI50 is 0.362 µM in the assay on OVCAR-8 ovarian; 0.176 µM in the assay with OVCAR-4 ovarian; 0.338 µM with HCC-2998 colon; 1.14 µM with BT-549 breast; 0.172 µM in the assay on MALME-3M melanoma; 0.214 µM in the assay with MDA-MB-231 breast. Besides, the GI50 in the assay on NCI-H23 lung is 0.148 µM; in the assay with UACC-62 melanoma, 0.944 µM; in the assay on SN12C renal, 1.02 µM; with NCI-H226 lung it was 0.358 µM. For the same molecule, the TGI was 2.38 µM in the assay on OVCAR-8 ovarian; 1.63 µM in the assay on OVCAR-4 ovarian; 1.26 µM in the assay on HCC-2998 colon; 2.51 µM in the assay with BT-549 breast; 0.358 µM with MALME-3M melanoma; 1.72 µM in the assay with MDA-MB-231 breast. The TGI with NCI-H23 lung was 0.352 µM; in the assay on UACC-62 melanoma it was 2.52 µM; in the assay with SN12C renal, 2.34 µM; in the assay with NCI-H226 lung it was 1.83 µM.
